Measurements published in patent publication US20250268903A1, “RXFP1 AGONISTS” (BRISTOL-MYERS SQUIBB COMPANY, priority 2021, published 2025).
pEC50: −log10 of the molar value.

biological target: T1, human RXFP1 (Homo sapiens, UniProt Q9HBX9); experiment: hRXFP1 HEK293 cAMP assay (HTRF); type: cell-based; conditions: HEK293 cells stably expressing human RXFP1, 30 min at room temperature
T1 construct: expressed in transfected cells
T1 sequence (Q9HBX9 1-757): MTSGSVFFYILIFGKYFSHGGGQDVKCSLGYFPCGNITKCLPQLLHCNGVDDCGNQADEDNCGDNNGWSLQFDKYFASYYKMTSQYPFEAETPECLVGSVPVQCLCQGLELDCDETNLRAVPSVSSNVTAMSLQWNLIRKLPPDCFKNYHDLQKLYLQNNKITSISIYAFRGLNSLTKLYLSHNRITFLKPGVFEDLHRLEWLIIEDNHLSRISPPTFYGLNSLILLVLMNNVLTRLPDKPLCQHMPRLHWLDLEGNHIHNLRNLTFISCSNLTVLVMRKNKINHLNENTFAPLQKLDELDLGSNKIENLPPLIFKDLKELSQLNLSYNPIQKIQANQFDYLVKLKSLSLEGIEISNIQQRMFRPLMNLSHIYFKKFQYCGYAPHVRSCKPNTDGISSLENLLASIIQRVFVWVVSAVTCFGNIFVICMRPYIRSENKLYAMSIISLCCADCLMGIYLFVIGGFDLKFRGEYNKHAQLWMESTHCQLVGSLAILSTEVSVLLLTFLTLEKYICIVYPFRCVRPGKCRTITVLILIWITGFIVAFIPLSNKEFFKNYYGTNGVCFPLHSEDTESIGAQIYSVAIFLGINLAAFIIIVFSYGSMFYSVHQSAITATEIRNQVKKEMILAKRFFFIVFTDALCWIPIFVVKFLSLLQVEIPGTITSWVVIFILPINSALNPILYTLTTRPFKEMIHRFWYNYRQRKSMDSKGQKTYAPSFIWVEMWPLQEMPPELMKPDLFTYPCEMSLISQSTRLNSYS
Experimental: RXFP1 Cyclic Adenosine Monophosphate (cAMP) Assays. […] Cells were dissociated and suspended in assay buffer. The assay buffer was HBSS buffer (with calcium and magnesium) containing 20 mM HEPES, 0.05% BSA, and 0.5 mM IBMX. Cells (3000 cells per well, except 1500 cell per well for HEK293 cells stably expressing human RXFP1) were added to 384-well Proxiplates (Perkin-Elmer). Cells were immediately treated with test compounds in DMSO (2% final) at final concentrations in the range of 0.010 nM to 50 μM. Cells were incubated for 30 min at room temperature. The level of intracellular cAMP was determined using the HTRF HiRange cAMP assay reagent kit (Cisbio) according to manufacturer's instructions. Solutions of cryptate conjugated anti-cAMP and d2 fluorophore-labelled cAMP were made in a supplied lysis buffer separately. Upon completion of the reaction, the cells were lysed with equal volume of the d2-cAMP solution and anti-cAMP solution. […] The potency and activity of a compound to […] cAMP production was then determined by fitting to a 4-parametric logistic equation from a plot of cAMP level versus compound concentrations.

| pEC50 | Compound |
| --- | --- |
| 6.85 | COc1ccc(/C=C/C(=O)N2CCC(S(C)(=O)=O)CC2)cc1C(=O)N[C@H]1[C@@H](C(=O)Nc2ccc(F)c(C(F)(F)F)c2)[C@H]2CC[C@@H]1/C2=C\C1CC1 [Example 317, (1R,2S,3R,4R,7Z)-7-(cyclopropyl-methylidene)-N-[4-fluoro-3-(trifluoromethyl)phenyl]-3-{5-[(1E)-3-(4-methanesulfonyl-piperidin-1-yl)-3-oxoprop-1-en-1-yl]-2-methoxybenzamido} bicyclo[2.2.1]heptane-2-carboxamide] |
| 7.12 | COc1ccc(COC2CCC(O)CC2)cc1C(=O)N[C@H]1[C@@H](C(=O)Nc2ccc(F)c(C(F)(F)F)c2)[C@H]2CC[C@@H]1/C2=C\C1CC1 (stereo partly drawn) [Example 290, (1R,2S,3R,4R,7Z)-7-(cyclopropyl-methylidene)-N-[4-fluoro-3-(trifluoromethyl)phenyl]-3-(5-{[(4-hydroxycyclohexyl)oxy]methyl}-2-methoxybenzamido) bicyclo[2.2.1]heptane-2-carboxamide] |
| 8.96 | COc1ccc(COc2c(F)cccc2C(OC(=O)Nc2ccccc2)C(F)(F)F)cc1C(=O)N[C@H]1[C@@H](C(=O)Nc2ccc(F)c(C(F)(F)F)c2)[C@H]2CC[C@@H]1/C2=C\C1CC1 (stereo partly drawn) [Example 364, 1-(2-((3-(((1R,2R,3S,4R,Z)-7-(cyclopropyl-methylene)-3-((4-fluoro-3-(trifluoromethyl)phenyl)carbamoyl)bicyclo[2.2.1]heptan-2-yl)carbamoyl)-4-methoxybenzyl)oxy)-3-fluorophenyl)-2,2,2-trifluoroethyl phenylcarbamate] |
| 6.63 | COc1ccc([C@H]2C[C@@H](O)C2)cc1C(=O)NC1C2CCC(/C2=C/C(F)(F)F)[C@@H]1C(=O)Nc1ccc(F)c(C(F)(F)F)c1 (stereo partly drawn) [Example 146, (2S,7Z)-N-[4-fluoro-3-(trifluoromethyl)phe-nyl]-3-{2-methoxy-5-[(1s,3s)-3-hydroxycyclobutyl]benz-amido}-7-(2,2,2-trifluoroethylidene)bi-cyclo[2.2.1]heptane-2-carboxamide] |
| 6.07 | COC(=O)C1CC2(C1)CC(c1ccc(OC)c(C(=O)N[C@@H]3C4CCC(/C4=C/C(F)(F)F)[C@@H]3C(=O)Nc3ccc(F)c(C(F)(F)F)c3)c1)C2 (single isomer, unassigned) [Example 149] |
| 6.26 | COC(=O)C1CC(c2ccc(OC)c(C(=O)N[C@H]3[C@@H](C(=O)Nc4ccc(F)c(C(F)(F)F)c4)[C@H]4CC[C@@H]3/C4=C\C(F)(F)F)c2)C1 (stereo partly drawn) [Example 331, methyl 3-(3-{(1R.2R,3S,4R,7Z)-3-{[4-fluoro-3-(trifluoromethyl)phenyl]carbamoyl}-7-(2,2,2-trifluoroethylidene)bicyclo[2.2.1]heptan-2-yl]carbamoyl}-4-methoxyphenyl) cyclobutane-1-carboxylate] |
| 7.58 | COc1ccc(C2CC(C(=O)N3CCC(O)CC3)C2)cc1C(=O)N[C@H]1[C@@H](C(=O)Nc2ccc(F)c(C(F)(F)F)c2)[C@H]2CC[C@@H]1/C2=C\C1CC1 (stereo partly drawn) [Example 327] |
| 5.92 | COc1ccc(C2CCCCC2O)cc1C(=O)N[C@@H]1C2CCC(/C2=C/C(F)(F)F)[C@@H]1C(=O)Nc1ccc(F)c(C(F)(F)F)c1 (single isomer, unassigned) [Example 58] |
| 7.67 | COC(=O)C1CC(c2ccc(OC)c(C(=O)N[C@H]3[C@@H](C(=O)Nc4ccc(F)c(C(F)(F)F)c4)[C@H]4CC[C@@H]3/C4=C\C3CC3)c2)C1 (single isomer, unassigned) [Example 328] |
| 8.23 | COc1c(F)cc(C(=O)N2CC3(C2)CC(O)(C(F)(F)F)C3)cc1C(=O)N[C@H]1[C@@H](C(=O)N[C@H](C)C2(C)CC2)[C@H]2CC[C@@H]1/C2=C\C1CC1 [Example 372, (1R,2S,3R,4R,7Z)-7-(cyclopropyl-methylidene)-3-{3-fluoro-5-[6-hydroxy-6-(trifluoromethyl)-2-azaspiro[3.3]heptane-2-carbonyl]-2-methoxybenzamido}-N-[(1R)-1-(1-methylcyclopropyl)ethyl]bicyclo[2.2.1] heptane-2-carboxamide] |
| 6.51 | COc1ccc(/C=C/C(=O)O)cc1C(=O)N[C@H]1[C@@H](C(=O)Nc2ccc(F)c(C(F)(F)F)c2)[C@H]2CC[C@@H]1/C2=C\C(F)(F)F [Example 8, (E)-3-(3-(((1R,2R,3S,4R,Z)-3-((4-fluoro-3-(trifluoromethyl)phenyl)carbamoyl)-7-(2,2,2-trifluoroethylidene)bicyclo[2.2.1]heptan-2-yl)carbamoyl)-4-methoxyphenyl) acrylic acid] |
| 6.17 | COc1ccc(N(Cc2ccccc2)Cc2ccccc2)cc1C(=O)N[C@H]1[C@@H](C(=O)Nc2ccc(F)c(C(F)(F)F)c2)[C@H]2CC[C@@H]1/C2=C\C1CC1 [Example 1, (1R,2S,3R,4R,Z)-7-(cyclopropylmethylene)-3-(5-(dibenzylamino)-2-methoxybenzamido)-N-(4-fluoro-3-(trifluoromethyl)phenyl) bicyclo[2.2.1]heptane-2-carboxamide] |
| 6.36 | COc1ccc(C(=O)N2C[C@H]3CNC[C@H]3C2)cc1C(=O)N[C@H]1[C@@H](C(=O)Nc2ccc(F)c(C(F)(F)F)c2)[C@H]2CC[C@@H]1/C2=C\C1CC1 [Example 249] |
| 7.15 | COc1ccc(CCCO)cc1C(=O)N[C@@H]1C2CCC(/C2=C/C2CC2)[C@@H]1C(=O)Nc1ccc(F)c(C(F)(F)F)c1 (stereo partly drawn) [Example 91, (2S,3R,7Z)-7-(cyclopropylmethyli-dene)-N-[4-fluoro-3-(trifluoromethyl)phe-nyl]-3-[5-(3-hydroxypropyl)-2-methoxybenzamido] bicyclo[2.2.1]heptane-2-carboxamide] |
| 6.11 | COc1ccc(/C=C/C(=O)NCC(F)(F)F)cc1C(=O)NC1C2CCC(/C2=C/C(F)(F)F)[C@@H]1C(=O)Nc1ccc(F)c(C(F)(F)F)c1 (stereo partly drawn) [Example 136, (2S,3R,7Z)-N-[4-fluoro-3-(trifluoromethyl)phe-nyl]-3-{2-methoxy-5-[(1E)-2-[(2,2,2-trifluoroethyl)carba-moyl]eth-1-en-1-yl]benzamido}-7-(2,2,2-trifluoroethylidene)bi-cyclo[2.2.1]heptane-2-carboxamide] |
| 7.96 | COc1ccc(C(=O)N2CC[C@@H](O)C2)cc1C(=O)N[C@H]1[C@@H](C(=O)Nc2ccc(F)c(C(F)(F)F)c2)[C@H]2CC[C@@H]1/C2=C\C1CC1 [Example 244, (1R,2S,3R,4R,7Z)-7-(cyclopropyl-methylidene)-N-[4-fluoro-3-(trifluoromethyl)phenyl]-3-{5-[(3R)-3-hydroxypyrrolidine-1-carbonyl]-2-methoxybenzamido} bicyclo[2.2.1]heptane-2-carboxamide] |
| 7.86 | COc1ccc(/C=C/C(=O)N2CC3CCC(C2)O3)cc1C(=O)N[C@H]1[C@@H](C(=O)Nc2ccc(F)c(C(F)(F)F)c2)[C@H]2CC[C@@H]1/C2=C\C1CC1 [Example 308, (1R,2S,3R,4R,7Z)-7-(cyclopropylmethylidene)-N-[4-fluoro-3-(trifluoromethyl)phenyl]-3-{2-methoxy-5-[(1E)-3-{8-oxa-3-azabicyclo[3.2.1]octan-3-yl}-3-oxoprop-1-en-1-yl]benzamido} bicyclo[2.2.1] heptane-2-carboxamide] |

| Compound | pEC50 |
| --- | --- |
| (1R,4R,7Z)-7-(2- cyclobutylethylidene)- N-[4-fluoro-3- (trifluoromethyl) phenyl]-3-[5-(3- hydroxy-3- methylbutyl)-2- methoxybenzamido] bicyclo[2.2.1] heptane- 2-carboxamide [Example 265] | 7.18 |
